In ChEMBL document CHEMBL2163337, “Trigohowilols A-G, degraded diterpenoids from the stems of Trigonostemon howii” (J Nat Prod, 2012):
pIC50: −log10 of the molar value. Converted amounts (≈) assume the structure as drawn.

Assays:
SW480 = test: Cytotoxicity against human SW480 cells by MTT assay; format: functional, cell-based
Staphylococcus aureus [1] = test: Antibacterial activity against Staphylococcus aureus ATCC 25923 by two-fold dilution method; format: functional
Staphylococcus aureus [2] = test: Antibacterial activity against methicillin-resistant Staphylococcus aureus clinical isolate 92 by two-fold dilution method; format: functional
MCF7 = test: Cytotoxicity against human MCF7 cells by MTT assay; format: functional, cell-based
Staphylococcus aureus [3] = test: Antibacterial activity against methicillin-resistant Staphylococcus aureus clinical isolate 98 by two-fold dilution method; format: functional
HL-60 = test: Cytotoxicity against human HL60 cells by MTT assay; format: functional, cell-based
Pseudomonas aeruginosa = test: Antibacterial activity against Pseudomonas aeruginosa ATCC 27853 by two-fold dilution method; format: functional
SMMC-7721 = test: Cytotoxicity against human SMMC7721 cells by MTT assay; format: functional, cell-based
A549 = test: Cytotoxicity against human A549 cells by MTT assay; format: functional, cell-based

Structure (SMILES) | pIC50 (SW480) | MIC (Staphylococcus aureus [1]) | MIC (Staphylococcus aureus [2]) | pIC50 (MCF7) | MIC (Staphylococcus aureus [3]) | pIC50 (HL-60) | MIC (Pseudomonas aeruginosa) | pIC50 (SMMC-7721) | pIC50 (A549)
COc1cc2c3c(cc(O)c2cc1C)C(C)(C)C(=O)C=C3 [TRIGOHOWILOL A] | < 4.40 | 25 µg/mL (≈ 88.5 µM) | 25 µg/mL (≈ 88.5 µM) | < 4.40 | 25 µg/mL (≈ 88.5 µM) | 4.60 | 25 µg/mL (≈ 88.5 µM) | < 4.40 | 4.45
Cc1cc2ccc3c(c2cc1O)C=C(O)C(=O)C3(C)C [TRIGOHOWILOL B] | < 4.40 | 25 µg/mL (≈ 93.2 µM) | 50 µg/mL (≈ 186 µM) | < 4.40 | 50 µg/mL (≈ 186 µM) | < 4.40 | 25 µg/mL (≈ 93.2 µM) | < 4.40 | < 4.40
Cc1cc2c(cc1O)C1=C(C3=Cc4c(cc(O)c5cc(C)c(O)cc45)C(C)(C)C3=O)C(=O)C(C)(C)C1=CC2=O [TRIGOHOWILOL C] | < 4.40 | 25 µg/mL (≈ 48 µM) | 25 µg/mL (≈ 48 µM) | < 4.40 | 25 µg/mL (≈ 48 µM) | < 4.40 | 25 µg/mL (≈ 48 µM) | < 4.40 | < 4.40
COc1cc2c3c(cc(O)c2cc1C)C(C)(C)C(=O)C(C1=C2C(=CC(=O)c4cc(C)c(O)cc42)C(C)(C)C1=O)=C3 [TRIGOHOWILOL D] | < 4.40 | 12.5 µg/mL (≈ 23.4 µM) | 12.5 µg/mL (≈ 23.4 µM) | < 4.40 | 12.5 µg/mL (≈ 23.4 µM) | 4.61 | 25 µg/mL (≈ 46.8 µM) | < 4.40 | < 4.40
COc1cc2c(cc1C)C(=O)C=C1C2=C(C2=Cc3c(cc(O)c4cc(C)c(O)cc34)C(C)(C)C2=O)C(=O)C1(C)C [TRIGOHOWILOL E] | 5.03 | 6.25 µg/mL (≈ 11.7 µM) | 25 µg/mL (≈ 46.8 µM) | 4.90 | 12.5 µg/mL (≈ 23.4 µM) | 5.58 | 50 µg/mL (≈ 93.5 µM) | 5.49 | 5.01
COc1cc2c(cc1C)C(=O)C=C1C2=C(C2=Cc3c(cc(O)c4cc(C)c(OC)cc34)C(C)(C)C2=O)C(=O)C1(C)C [TRIGOHOWILOL F] | 5.45 | 12.5 µg/mL (≈ 22.8 µM) | 12.5 µg/mL (≈ 22.8 µM) | 5.38 | 12.5 µg/mL (≈ 22.8 µM) | 5.60 | 25 µg/mL (≈ 45.6 µM) | 5.63 | 5.44
COc1cc2c(cc1C)C(=O)C=C1C2=C(C2=C3C(=CC(=O)c4cc(C)c(OC)cc43)C(C)(C)C2=O)C(=O)C1(C)C [TRIGOHOWILOL G] | 5.08 | > 50 µg/mL | > 50 µg/mL | 4.81 | > 50 µg/mL | 4.75 | > 50 µg/mL | 5.56 | 5.27
CN[C@H](CC(C)C)C(=O)N[C@H]1C(=O)N[C@@H](CC(N)=O)C(=O)N[C@H]2C(=O)N[C@H]3C(=O)N[C@H](C(=O)N[C@H](C(=O)O)c4cc(O)cc(O)c4-c4cc3ccc4O)[C@H](O)c3ccc(c(Cl)c3)Oc3cc2cc(c3O[C@@H]2O[C@H](CO)[C@@H](O)[C@H](O)[C@H]2O[C@H]2C[C@](C)(N)[C@H](O)[C@H](C)O2)Oc2ccc(cc2Cl)[C@H]1O.Cl [VANCOMYCIN HYDROCHLORIDE] | – | 0.78 µg/mL | 0.78 µg/mL | – | 0.78 µg/mL | – | 0.78 µg/mL | – | –
